The subject of assay [1] is pentamidine-resistant L. enriettii LePentR50 promastigotes. As to the kind of experiment: microbe, parasite or virus in culture. The following applies: for IC50: Leishmania enriettii, 72 h, read-out: IC50(μM) of synthetic flavonoid, LePentR50, cytotoxicity of compound alone, 72 hrs; for pentamidine sensitization: LePentR50, FIG. 18A. Here is the method: (§1) Cell lines and Cell Culture. Promastigotes of Leishmania enriettii (LePentR50, Le wild type, LeMDR1 −/− and LeMDR1-overexpressed LeV160 mutants) and Leishmania donovani (LdAG83, Ld2001 and Ld39) were employed in this study. The former is a natural infective strain of guinea pig and the latter is a clinical strain, which may cause visceral leishmaniasis in human. Both strains were cultured in Schneider's Drosophila Medium (Invitrogen), pH 6.9 supplemented with 10% (v/v) heat inactivated fetal calf serum (Hyclone) with 4 mM glutamine (Sigma) and 25 μg/mL gentamicin solution (Invitrogen), at 27° C. for 4 days (Cloning and functional analysis of an extrachromosomally amplified multidrug resistance-like gene in Leishmania enriettii. Mol. Biochem. Parasitol 1993, 60, 195-208).
Promastigotes of LeV160 were culture in the presence of 160 μg/mL vinblastine. No pentamidine and vinblastine (Sigma) was added to the Le wild type and LeMDR1 −/− mutant.
(§2) The viability of promastigotes was determined by the Cell Titer 96® Aqueous Assay (Promega) that employs a tetrazolium compound (MTS) and electron coupling reagent, phenazine methosulfate (PMS). Promastigotes were seeded into 96-well flat bottom microtiter plate at 1×10^5 cells per well in a final volume of 100 μL medium. To determine the cytotoxic effects of flavonoid dimers to the parasites, various concentrations of flavonoid dimers were added to the promastigotes. To determine the reversal effects of flavonoid dimers with different spacer lengths, various concentrations of antileishmanial drugs, one of pentamidine or SSG, vinblastine and puromycin was added to the wells with or without flavonoid dimers. The parasites were incubated at 27° C. for 72 hrs. Each concentration of antileishmanials with or without the flavonoid dimers was tested in triplicates in each experiment. A 2 mg/mL MTS and 0.92 mg/mL PMS were mixed at a ratio of 20:1 (MTS: PMS). After 72-hr incubation, 10 μL of MTS:PMS mixture was added into each well of microtiter plate. The plate was then incubated at 27° C. for 4 hrs for color development. After 4 hrs of incubation, the OD values were determined at 490 nm using automatic microtiter plate reader (Bio-Rad).

The subject of assay [2] is wild type L. donovani LdAG83 promastigotes. Kind of assay: Leishmania cell viability (MTS) assay. The following applies: Leishmania donovani, read-out: IC50(μM) of synthetic flavonoid, LdAG83. The assay is classed as cell-based, Leishmania donovani. How it is done: as §1, with “195-208). […]” for “195-208).”
as §2

Assay [3] has as its system SSG-resistant L. donovani Ld39 promastigotes. As to the kind of experiment: microbe, parasite or virus in culture. It counts as cell-based, Leishmania donovani. The note with it: for SSG resistance modulating activity: Ld39, FIG. 14B; for IC50: Leishmania donovani, 72 h, read-out: IC50(μM) of synthetic flavonoid, Ld39. How it is done:
as §1, with “195-208). […]” for “195-208).”
as §2

Another assay relates to MDA435/LCC6 MDR cells. As to the kind of experiment: cells. The note with it: for doxorubicin sensitization / reversing effect on taxol resistance: MDA435/LCC6 MDR; for doxorubicin sensitization: dimers; for reversing effect on taxol resistance: dimers at 5 μM; for reversing activity compared with verapamil: LCC6MDR, taxol, 5 μM. Here is the method: MDA435/LCC6 and P388 (both parent and MDR subtype) were maintained in DMEM and RPMI 1640 culture medium supplemented with 10% FBS, respectively. RPMI 1640 media also contained 100 units/ml penicillin and 100 μg/ml streptomycin. Cells were cultured at 37° C. in a humidified atmosphere with 5% CO2. A solution of 0.05% trypsin-EDTA was used to detach the MDA435/LCC6 (both wild type and MDR subtype) cells.
Cell proliferation assay. MDA435/LCC6 and P388 (both parent and MDR subtype) cells were seeded at 2000 and 5000 cells per well, respectively, in 96-well plates. Varying concentrations of anticancer drugs (Doxorubicin, Daunorubicin, Vincristine, Vinblastine, taxol, Mitoxantrone) with or without the flavonoid dimers were added in a final volume of 200 μl and cells were grown for 4 and 3 days for MDA435/LCC6 and P388 (both parent and MDR subtype) cells, respectively. For MDA435/LCC6 (both parent and MDR subtype), the corresponding drugs were added after cell attachment (24 hr incubation). To measure cell proliferation, the cell Titer 960 Aqueous Assay (Promega) was used according to the manufacturer's instructions. Briefly, MTS (2 mg/ml) and PMS (0.92 mg/ml) were mixed in a ratio of 20:1. 30 μl MTS/PMS mixture was added into each well and incubated for 2 hours at 37° C. Optical absorbance at 490 nm was then recorded using an ELISA microtiter plate reader (Bio-Rad). Each experiment was done at least in triplicate and repeated twice. Cytotoxicity of the anticancer drugs was expressed as the fraction of the cells survived relative to the untreated DMSO (0.05%) solvent controls.
MDA435/LCC6 is an estrogen-independent human breast cancer cell line. Its MDR subtype (MDA435/LCC6 MDR) was generated by transducing a retroviral vector directing the constitutive expression of the human MDR1 cDNA, producing a cell line with a classical MDR1 resistance pattern (MDA435/LCC6 and MDA435/LCC6MDR1: ascites models of human breast cancer. Br J Cancer 1996, 73, 154-161). The ability of the apigenin dimers of this invention to reverse taxol resistance in MDA435/LCC6 MDR cells were tested. […] Apigenin monomers 10a and 10b at 10 μM were used as the negative controls.

The subject of another assay is P388/ADR cells. As to the kind of experiment: Doxorubicin accumulation. The assay is classed as cell-based, murine. The following applies: monomer 10b at double concentration of the dimers, FIG. 11A. Here is the method:
For P388 (both parent and MDR subtype) cells, 1 ml (10^5 cells) confluent cells were aliquot into Eppendorf tube and pre-incubated with flavone dimers for 30 min at 37° C. Doxorubicin (final concentration of 10 μM) was then added and incubated for 2 h at 37° C. at a final concentration of 10 μM. The cell pellets were washed 3 times with cold PBS by using an Eppendorf micro-centrifuge and lysed with 0.3N HCL in 50% ethanol, and sonicated for 30s. After centrifugation at 10000 rpm/min for 3 min, the supernatant was saved. The fluorescence of doxorubicin was measured using a spectrofluorometer (λexcite=470 nm, λemit=585 nm).

SMILES strings stand for the structures. Where two headings read alike, the source gives them in different places.

Regarding `O=c1cc(-c2ccc(O)cc2)oc2cc(O)cc(O)c12` [Apigenin, reference compound], the IC50 (in general, the concentration needed to halve the response being measured) in assay [1] amounted to 55 ± 2.6 µM; in assay [2] (cytotoxicity of compound alone, 72 hrs), 32 ± 4.1 µM; in assay [3], 43 ± 5.9 µM. Besides, in assay [3] (12 μM), the “SSG resistance modulating activity” value is listed as “did not give any significant modulating activity”.

`O=c1cc(-c2ccc(OCCOc3ccc(-c4cc(=O)c5c(O)cc(O)cc5o4)cc3)cc2)oc2cc(O)cc(O)c12` [Compound 9a, 1,4-Bis[4′-((5,7-dihydroxy)-4H-chromen-4-on-2-yl)phenyl]-1,4-dioxabutane]: in the assay on MDA435/LCC6 MDR cells, the doxorubicin sensitization entry is “very little or no doxorubicin sensitization”. Also, in the assay with MDA435/LCC6 MDR cells, the “reversing effect on taxol resistance” value was “little or no reversing effect”. Besides, the “activity on doxorubicin accumulation” value in the assay with P388/ADR cells was “little or no activity at all”. The figures for the concentration for half-maximal inhibition (IC50) in assay [1], in assay [2] (72 h) and in assay [3] were above 200 µM, 95 ± 3.2 µM and 117 ± 10 µM, respectively. Besides, the “SSG resistance modulating activity” value in assay [3] (dimers at 6 μM) is “did not show substantial SSG resistance modulating activity”.

With `O=c1cc(-c2ccc(OCCOCCOCCOCCOCCOc3ccc(-c4cc(=O)c5c(O)cc(O)cc5o4)cc3)cc2)oc2cc(O)cc(O)c12` [Compound 9e, 1,16-Bis[4′-((5,7-dihydroxy)-4H-chromen-4-on-2-yl)phenyl]-1,4,7,10,13,16-hexaoxahexadecane], the doxorubicin sensitization entry with MDA435/LCC6 MDR cells is reported as “very little or no doxorubicin sensitization”. In the assay on MDA435/LCC6 MDR cells, the “reversing effect on taxol resistance” value was “little or no reversing effect”. For the same compound, the “activity on doxorubicin accumulation” value in the assay with P388/ADR cells is recorded as “little or no activity at all”. For the same compound, the figures for the 50% inhibitory concentration (IC50) in assay [1], in assay [2] (72 h) and in assay [3] were 70 ± 3 µM, 30 ± 1.2 µM and 42 ± 2.3 µM, respectively.

Turning to `O=c1cc(-c2ccc(OCCOCCOCCOCCOCCOCCOc3ccc(-c4cc(=O)c5c(O)cc(O)cc5o4)cc3)cc2)oc2cc(O)cc(O)c12` [Compound 9f, 1,19-Bis[4′-((5,7-dihydroxy)-4H-chromen-4-on-2-yl)phenyl]-1,4,7,10,13,16,19-heptaoxanonadecane], the doxorubicin sensitization result in the assay on MDA435/LCC6 MDR cells is recorded as “very little or no doxorubicin sensitization”. In addition, the “reversing effect on taxol resistance” value with MDA435/LCC6 MDR cells is “little or no reversing effect”. Besides, the values for the IC50 in assay [1], in assay [2] (72 h) and in assay [3] were 40 ± 5.3 µM, 11 ± 2 µM and 13 ± 0.6 µM, respectively.

For `O=c1cc(-c2ccc(OCCOCCOCCOCCOCCOCCOCCOCCOCCOc3ccc(-c4cc(=O)c5c(O)cc(O)cc5o4)cc3)cc2)oc2cc(O)cc(O)c12` [Compound 9i, 1,28-Bis[4′-((5,7-dihydroxy)-4H-chromen-4-on-2-yl)phenyl]-1,4,7,10,13,16,19,22,25,28-decaoxaoctacosane], the concentration for half-maximal inhibition (IC50) in assay [2] (72 h) came out at 10 ± 0.3 µM; in assay [3], 14 ± 0.1 µM.

As for `O=c1cc(-c2ccc(OCCOCCOCCOCCOc3ccc(-c4cc(=O)c5ccccc5o4)cc3)cc2)oc2ccccc12` [Compound 35a, 1,13-Bis[4′-(4H-chromen-4-on-2-yl)phenyl]-1,4,7,10,13-pentaoxamidecane], in the assay on MDA435/LCC6 MDR cells, the “reversing activity compared with verapamil” value is reported as “stronger reversing activity than verapamil”.

Regarding `O=c1cc(-c2ccc(OCCOCCOCCOCCOc3ccc(-c4cc(=O)c5ccc(F)cc5o4)cc3)cc2)oc2cc(F)ccc12` [Compound 35b, 1,13-Bis[4′-(7-fluoro-4H-chromen-4-on-2-yl)phenyl]-1,4,7,10,13-pentaoxamidecane], in the assay with MDA435/LCC6 MDR cells, the “reversing activity compared with verapamil” value is listed as “stronger reversing activity than verapamil”.

As to `O=c1cc(-c2ccc(OCCOCCOCCOCCOc3ccc(-c4cc(=O)c5cc(Cl)cc(Cl)c5o4)cc3)cc2)oc2c(Cl)cc(Cl)cc12` [Compound 35f, 1,13-Bis[4′-(6,8-dichloro-4H-chromen-4-on-2-yl)phenyl]-1,4,7,10,13-pentaoxamidecane], in the assay on MDA435/LCC6 MDR cells, the “reversing activity compared with verapamil” value is “stronger reversing activity than verapamil”.

With `Cc1ccc2c(=O)cc(-c3ccc(OCCOCCOCCOCCOc4ccc(-c5cc(=O)c6ccc(C)cc6o5)cc4)cc3)oc2c1` [Compound 35g, 1,13-Bis[4′-(7-methyl-4H-chromen-4-on-2-yl)phenyl]-1,4,7,10,13-pentaoxamidecane], the “reversing activity compared with verapamil” value with MDA435/LCC6 MDR cells is reported as “stronger reversing activity than verapamil”.

Turning to `Cc1ccc2oc(-c3ccc(OCCOCCOCCOCCOc4ccc(-c5cc(=O)c6cc(C)ccc6o5)cc4)cc3)cc(=O)c2c1` [Compound 35h, 1,13-Bis[4′-(6-methyl-4H-chromen-4-on-2-yl)phenyl]-1,4,7,10,13-pentaoxamidecane], the “reversing activity compared with verapamil” value with MDA435/LCC6 MDR cells was “stronger reversing activity than verapamil”.

In the case of `CCN(CC)CCCC(C)Nc1c2ccc(Cl)cc2nc2ccc(OC)cc12` (stereo not drawn) [quinacrine, reference compound], in assay [1], the pentamidine sensitization was around 4.5 fold.

As for `C=C[C@H]1C[N@@]2CC[C@H]1C[C@@H]2[C@@H](O)c1ccnc2ccc(OC)cc12` [quinidine, reference compound], the pentamidine sensitization result in assay [1] is given as “less than half-fold sensitization”.

Take `C=C[C@H]1C[N@@]2CC[C@H]1C[C@H]2[C@H](O)c1ccnc2ccc(OC)cc12` [quinine, reference compound]: the pentamidine sensitization entry in assay [1] is given as “less than half-fold sensitization”.

With `COC(=O)[C@H]1[C@H]2C[C@@H]3c4[nH]c5cc(OC)ccc5c4CCN3C[C@H]2C[C@@H](OC(=O)c2cc(OC)c(OC)c(OC)c2)[C@@H]1OC` [reserpine, reference compound], the pentamidine sensitization in assay [1] is around 3.2 fold.

These data come from patent US8710097B2, “Flavonoid dimers and methods of making and using such” (The Hong Kong Polytechnic University, priority 2006, dated 2014).
